Test results taken from patent publication US20260137671A1, “PDK4 as a Cell-Aging Intervention Target and Its Use in Chemotherapy and Anticancer” (Shanghai Institute of Nutrition and Health, Chinese Academy …, priority 2022, published 2026).

Assays:
[1] = molecular target: T1, HTR2B (Homo sapiens, UniProt P41595); test: Malignant phenotype of HTR2B-transduced PCa lines with HTR2B antagonist; type: cell-based; conditions: PCa lines PC3, DU145, M12; antagonist applied under culture conditions
T1 construct: expressed in transfected cells; host or cells: PCa cell lines (PC3, DU145, M12)
T1 sequence (P41595 whole entry): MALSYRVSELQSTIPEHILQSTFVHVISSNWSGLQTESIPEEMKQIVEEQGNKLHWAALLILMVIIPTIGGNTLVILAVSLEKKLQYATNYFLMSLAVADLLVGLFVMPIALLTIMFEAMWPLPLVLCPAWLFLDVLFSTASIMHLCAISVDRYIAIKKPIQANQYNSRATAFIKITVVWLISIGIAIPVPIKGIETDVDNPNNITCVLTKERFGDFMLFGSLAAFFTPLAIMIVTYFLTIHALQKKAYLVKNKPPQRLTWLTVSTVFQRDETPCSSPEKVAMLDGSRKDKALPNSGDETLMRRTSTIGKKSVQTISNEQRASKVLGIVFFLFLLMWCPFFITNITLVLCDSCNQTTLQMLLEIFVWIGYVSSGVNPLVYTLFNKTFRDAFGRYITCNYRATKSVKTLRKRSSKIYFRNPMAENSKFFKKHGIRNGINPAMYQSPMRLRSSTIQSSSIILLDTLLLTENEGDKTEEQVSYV
From the text: FIG. 59. Left, appraisal of the proliferation capacity of PCa lines under different conditions. As the experimental group, human HTR2B was transduced into each PCa cell line, and LY 266097 was used in the culture medium as a control for drug treatment. Middle, measurement of the migration ability of PCa lines under different conditions, with cells treated similarly as described above. Right, measurement of the migration ability of PCa lines under different conditions, with cells treated similarly as described above.
(§1) After PSC27 cells were cultured in DMEM+0.5% FBS medium for 3 days, then the cell population was washed thoroughly with 1×PBS. After a simple centrifugation, the supernatant was collected as conditioned medium, stored at −80° C. or used directly. Prostate epithelial cells are subjected to in vitro experiments during continuous culture in this conditioned medium for 3 days. For chemotherapy resistance, epithelial cell lines were cultured either in low-serum DMEM (0.5% FBS) (referred to as “DMEM”) or in conditioned medium. Simultaneously, mitoxantrone (MIT) was used to treat cells for 1 to 3 days at concentrations close to the IC50 values for each cell line, followed by observation under a bright-field microscope.
More importantly, the transduction of HTR2B enhanced resistance of PCa cells to mitoxantrone (MIT). […]

[2] = tested on: PC3 cells xenografted together with PSC27 cells; test: PC3/PSC27 xenograft, tumor end volume after chemotherapy and/or PDK4-IN; type: in vivo, SCID mice; conditions: MIT alone, 0.2 mg/kg i.p., first day of weeks 3, 5, 7; end of 8-week regimen
Experimental: All experimental mouse experiments were carried out in strict accordance with the relevant regulations of the Institutional Animal Care and Use Committee (IACUC), Shanghai Institutes for Biological Sciences, Chinese Academy of Sciences. Immuno-deficient mice ICR SCID mice (body weight about 25 g) aged about 6 weeks were used for animal experiments related to the present disclosure. Stromal cells PSC27 and epithelial cells were mixed at a ratio of 1:4, and each graft contained 1.25×10^6 cells for tissue remodeling. The xenograft tumors were implanted into mice by subcutaneous transplantation, and the animals were euthanized 8 weeks after the end of the transplantation surgery. […] For pre-clinical chemotherapeutic studies, mice received subcutaneous implantation were given standard laboratory diets. […] The time points were on the first day of the third, fifth and seventh weeks, with a total of 3 cycles of treatment, and each cycle lasted for 2 weeks. After the course of treatment, mouse […] were collected for tumor measurement and histological analysis. […] The chemotherapy experiment ended at the end of the 8th week, and the mice were dissected immediately after sacrifice, and the xenograft tumors were collected and used for pathological system analysis. To closely mimic clinical conditions involving chemotherapeutic drugs, the inventors designed a preclinical regimen incorporating a genotoxic drug (MIT) and/or the PDK4 inhibitor (PDK4-IN) (FIG. 63).

[3] = tested on: PC3; test: MIT-based viability assay of PC3; type: cell-based, human; conditions: PC3, range of concentrations of MIT
Experimental: FIG. 61. Dose-response curves (non-linear regression/curve fit) plotted from MIT-based viability assays of PC3 exposed to the CM of PSC27-PDK4 cells and treated by a range of concentrations of MIT.
as §1

[4] = tested on: tumor tissues of mice (PC3/PSC27 xenografts); test: In vivo cellular senescence and SASP expression in xenograft tumors (LCM transcripts, SA-β-Gal staining); parameters: species or system SCID mice; conditions: histological staining, FIG. 68
From the text: (§2) FIG. 66. Transcript assessment of several canonical SASP factors expressed in stromal cells isolated from tumors in SCID mice. LCM isolation, total RNA preparation and expression assays on tissues from animals with simultaneously implanted stromal cells and cancer cells. Note that the group measured as of the lowest value was used as normalization baseline per factor.
as §2, with “67.” for “66.”, “individual” for “several”, “factors (AREG), aging markers (p16/p21) and PDK4” for “factors”
FIG. 68. Representative IHC images of SA-β-Gal staining chromatograms from tissues isolated from animals subjected to placebo or drug treatments. Scale bar, 100 μm. Right, Comparative statistical analysis of SA-β-Gal staining for tissues in mice mentioned above.
Senescence-associated β-galactosidase (SA-β-Gal) staining was performed following a previously reported procedure (Debacq-Chainiaux et al., 2009). Briefly, cells in culture dishes were washed with PBS and fixed at room temperature. Cells were fixed in 2% formaldehyde and 0.2% glutaraldehyde for 3 minutes. SA-β-Gal was used for staining with freshly prepared staining solution overnight at 37° C. Images were taken on the next day and the percentage of positive cells per unit area was calculated.
For pre-clinical chemotherapeutic studies, mice received subcutaneous implantation were given standard laboratory diets. […] The time points were on the first day of the third, fifth and seventh weeks, with a total of 3 cycles of treatment, and each cycle lasted for 2 weeks. After the course of treatment, mouse […] were collected for tumor measurement and histological analysis. […]

[5] = tested on: cancer cells in tumors (PC3/PSC27 xenografts); test: DNA damage and apoptosis in tumors by IHC (γ-H2AX, cleaved caspase 3); type: in vivo, SCID mice
From the text: FIG. 69. Statistical evaluating values of DNA-damaged cells and apoptotic cells in analyzed tumor specimens, represented as a percentage of cells positively stained by IHC with antibodies against γ-H2AX or caspase 3 (cleaved).
FIG. 70. Representative IHC images of caspase 3 (cleaved) in tumors at the end of therapeutic regimens. Biopsies of placebo-treated animals served as negative controls for drug-treated mice. Scale bar, 100 μm.
Considering the primary in vivo expressive results with MIT and/or PDK4-IN treatment, the inventors next asked how pharmacologically targeting PDK4 could enhance the therapeutic response of tumors. To disclose the possible mechanism(s), the inventors chose to dissect tumors from animals 7 days after initiation of treatment, a timepoint right before the development of resistant colonies.

[6] = tested on: MDA-MB-231 breast cancer cells xenografted together with HBF1203 breast stromal cells; test: MDA-MB-231/HBF1203 xenograft, tumor end volume after chemotherapy and/or PDK4-IN; type: in vivo, SCID mice; conditions: DTX 1.0 mg/kg with PDK4-IN; FIG. 73
Experimental: All experimental mouse experiments were carried out in strict accordance with the relevant regulations of the Institutional Animal Care and Use Committee (IACUC), Shanghai Institutes for Biological Sciences, Chinese Academy of Sciences. Immuno-deficient mice ICR SCID mice (body weight about 25 g) aged about 6 weeks were used for animal experiments related to the present disclosure. Stromal cells PSC27 and epithelial cells were mixed at a ratio of 1:4, and each graft contained 1.25×10^6 cells for tissue remodeling. The xenograft tumors were implanted into mice by subcutaneous transplantation, and the animals were euthanized 8 weeks after the end of the transplantation surgery. Tumor volume was calculated according to the following formula: V=(π/6)×(([…])/2)^3 (V, volume; 1, length; w, width).
For pre-clinical chemotherapeutic studies, mice received subcutaneous implantation were given standard laboratory diets. […] The time points were on the first day of the third, fifth and seventh weeks, with a total of 3 cycles of treatment, and each cycle lasted for 2 weeks. After the course of treatment, mouse […] were collected for tumor measurement and histological analysis. […] In order to cause systemic expression of SASP factors induced by chemotherapy, MIT was administered to mice through intravenous infusion according to the above steps and sequence, but the dose was reduced to 0.1 mg/kg body weight/each time (the cumulative dose of MIT received in the whole course of treatment was 0.3 mg/kg body weight) to reduce drug-related toxicity. The chemotherapy experiment ended at the end of the 8th week, and the mice were dissected immediately after sacrifice, and the xenograft tumors were collected and used for pathological system analysis.
To assess the in vivo effects of chemotherapeutic drugs and/or PDK4-IN treatment in different tumor types, the inventors subsequently generated xenografts composed of breast cancer cell line MDA-MB-231 and breast stromal cell line HBF1203 to replicate the preclinical intervention observed in prostate cancer xenografts.

Structure (SMILES): COc1ccc(CC2NCCc3c2[nH]c2ccc(C)cc32)c(Cl)c1OC.Cl (stereo not shown) [LY 266097]
- HTR2B-conferred gain of proliferation, migration, invasion and resistance to MIT [1]: generally lost

Structure (SMILES): O=C1c2c(O)ccc(O)c2C(=O)c2c(NCCNCCO)ccc(NCCNCCO)c21 [MIT, mitoxantrone]
- tumor shrinkage (tumor volume reduction) [2]: 57.5%
- survival curve of cancer cells under genotoxic stress [3]: declined trend
- SA-β-gal positivity in tumor tissues [4]: elevated SA-β-gal positivity
- caspase 3 cleavage (IHC) ([5]; MIT administration alone): increased caspase 3 cleavage
- DNA damage and apoptosis in cancer cells ([5]; tumors dissected 7 days after initiation of treatment, single agent): caused substantial DNA damage and apoptosis

Structure (SMILES): CC(=O)O[C@@]12CO[C@@H]1C[C@H](O)[C@@]1(C)C(=O)[C@H](O)C3=C(C)[C@@H](OC(=O)[C@H](O)[C@@H](NC(=O)OC(C)(C)C)c4ccccc4)C[C@@](O)([C@@H](OC(=O)c4ccccc4)[C@H]21)C3(C)C [docetaxel (DTX), docetaxel]
- tumor regression by combination with PDK4-IN (non-genotoxic drug) [6]: unable to replicate the effects
